Measured values published in patent publication US8680275B2, “Fused heterocyclic compounds as orexin receptor modulators” (Janssen Pharmaceutica NV, priority 2009, dated 2014).

Experiments:
[1] = biological target: human orexin-2 receptor (Homo sapiens (Human), UniProt O43614); experiment: Human orexin 2 receptor radioligand binding ([3H]-EMPA competition); conditions: HEK293 cells stably expressing human orexin-2 receptor; [3H]-EMPA 5 nM final; read-out: OR-2 Ki
How it was run: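 Competition binding on HEK293 cells stably expressing human orexin-2 receptor, using 5 nM final [3H]-EMPA in PBS, compounds 0.1 nM to 10 μM (DMSO ≤0.1%). 60 min at room temperature, then filtration and scintillation counting; nonspecific binding defined with 10 μM of a reference antagonist.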

[2] = biological target: human orexin 1 receptor (Homo sapiens (Human), UniProt O43613); experiment: Human orexin 1 receptor radioligand binding ([3H]-SB674042 competition); conditions: CHO cells stably expressing human orexin 1 receptor; [3H]-SB674042 4 nM final; read-out: OR-1 Ki
How it was run: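 CHO cells stably expressing human OX1R incubated 60 min at room temperature with [3H]-SB674042 and compounds (7 concentrations, 0.1 nM–10 μM; DMSO ≤0.1%) in PBS. Nonspecific binding defined with 10 μM of a reference urea antagonist; bound radioactivity measured by filtration and scintillation counting.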

Chain of human orexin-2 receptor (O43614 whole entry): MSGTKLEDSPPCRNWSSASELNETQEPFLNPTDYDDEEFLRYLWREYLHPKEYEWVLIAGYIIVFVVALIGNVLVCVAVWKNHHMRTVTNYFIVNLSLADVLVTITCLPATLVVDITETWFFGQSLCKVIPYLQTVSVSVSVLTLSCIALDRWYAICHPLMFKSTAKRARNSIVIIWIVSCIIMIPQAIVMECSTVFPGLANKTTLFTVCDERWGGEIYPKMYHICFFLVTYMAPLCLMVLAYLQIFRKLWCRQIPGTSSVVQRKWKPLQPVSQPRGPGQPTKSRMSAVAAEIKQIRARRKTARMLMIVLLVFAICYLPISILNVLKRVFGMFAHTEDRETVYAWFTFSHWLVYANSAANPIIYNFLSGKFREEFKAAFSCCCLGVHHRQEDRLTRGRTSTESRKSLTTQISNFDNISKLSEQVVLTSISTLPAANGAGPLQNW
Chain of human orexin 1 receptor (O43613 whole entry): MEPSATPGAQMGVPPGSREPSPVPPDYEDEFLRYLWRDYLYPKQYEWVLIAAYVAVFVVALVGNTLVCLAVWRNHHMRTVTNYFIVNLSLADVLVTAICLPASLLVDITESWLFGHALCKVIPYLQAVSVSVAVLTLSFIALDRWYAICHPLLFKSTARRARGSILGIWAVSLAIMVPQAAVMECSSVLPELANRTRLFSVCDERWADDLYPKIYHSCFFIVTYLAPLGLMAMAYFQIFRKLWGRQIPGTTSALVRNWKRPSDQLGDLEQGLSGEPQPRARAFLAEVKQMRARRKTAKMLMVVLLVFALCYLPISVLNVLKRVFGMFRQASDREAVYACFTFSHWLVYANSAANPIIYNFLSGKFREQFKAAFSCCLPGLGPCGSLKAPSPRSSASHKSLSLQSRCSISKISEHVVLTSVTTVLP

Work on `Cc1cc(C)nc(N2C[C@@H]3CCN(C(=O)c4cc(F)ccc4-c4cncnc4)C[C@@H]32)n1` [Example 165, (1R,6S)-8-(4,6-Dimethylpyrimidin-2-yl)-3-[(5-fluoro-2-pyrimidin-5-ylphenyl)carbonyl]-3,8-diazabicyclo[4.2.0]octane] yielded a Ki [1] of 0.55 µM and a Ki [2] of 10 µM.
In the case of `Cc1cc(C)nc(N2C[C@@H]3CCN(C(=O)c4cc(F)ccc4-c4ccc(N(C)C)nc4)C[C@@H]32)n1` [Example 166, 5-(2-{[(1R,6S)-8-(4,6-Dimethylpyrimidin-2-yl)-3,8-diazabicyclo[4.2.0]oct-3-yl]carbonyl}-4-fluorophenyl)-N,N-dimethylpyridin-2-amine], the Ki [1] is reported as 0.072 µM and the Ki [2] is reported as 3.84 µM.
`Cc1cc(C)nc(N2C[C@@H]3CCN(C(=O)c4cccc5c4-c4ccccc4C5)C[C@@H]32)n1` [Example 167, (1R,6S)-8-(4,6-Dimethylpyrimidin-2-yl)-3-(9H-fluoren-4-ylcarbonyl)-3,8-diazabicyclo[4.2.0]octane] showed a Ki [1] of 0.055 µM and a Ki [2] of 0.219 µM.
`Cc1cc(C)nc(N2C[C@@H]3CCN(C(=O)c4cccc5c4-c4ccccc4C5=O)C[C@@H]32)n1` [Example 168, 4-{[(1R,6S)-8-(4,6-Dimethylpyrimidin-2-yl)-3,8-diazabicyclo[4.2.0]oct-3-yl]carbonyl}-9H-fluoren-9-one] showed a Ki [1] of 0.74 µM and a Ki [2] of 7.3 µM.
`Cc1cc(C)nc(N2C[C@@H]3CCN(C(=O)c4cc(F)ccc4-c4ccn[nH]4)C[C@@H]32)n1` [Example 171, (1R,6S)-8-(4,6-dimethylpyrimidin-2-yl)-3-{[5-fluoro-2-(1H-pyrazol-3-yl)phenyl]carbonyl}-3,8-diazabicyclo[4.2.0]octane] showed a Ki [1] of 0.015 µM and a Ki [2] of 0.392 µM.
In the case of `Cc1cc(C)nc(N2C[C@@H]3CCN(C(=O)c4nc(C)sc4-c4ccc(F)cc4)C[C@@H]32)n1` [Example 173, (1R,6S)-8-(4,6-Dimethylpyrimidin-2-yl)-3-{[5-(4-fluorophenyl)-2-methyl-1,3-thiazol-4-yl]carbonyl}-3,8-diazabicyclo[4.2.0]octane], the Ki [1] is reported as 0.062 µM and the Ki [2] is reported as 2.15 µM.
For `Cc1cc(C)nc(N2C[C@@H]3CCN(C(=O)c4cn[nH]c4-c4ccccc4)C[C@@H]32)n1` [Example 174, (1R,6S)-8-(4,6-Dimethylpyrimidin-2-yl)-3-[(5-phenyl-1H-pyrazol-4-yl)carbonyl]-3,8-diazabicyclo[4.2.0]octane], the Ki [1] was 6 µM and the Ki [2] was 10 µM.
In the case of `Cc1cc(C)nc(N2C[C@@H]3CCN(C(=O)c4c(-c5ccccc5)noc4C)C[C@@H]32)n1` [Example 175, (1R,6S)-8-(4,6-Dimethylpyrimidin-2-yl)-3-[(5-methyl-3-phenylisoxazol-4-yl)carbonyl]-3,8-diazabicyclo[4.2.0]octane], the Ki [1] is reported as 0.488 µM and the Ki [2] is reported as 10 µM.
With `Cc1cc(C)nc(N2C[C@@H]3CCN(C(=O)c4cnoc4-c4ccccc4)C[C@@H]32)n1` [Example 176, (1R,6S)-8-(4,6-Dimethylpyrimidin-2-yl)-3-[(5-phenylisoxazol-4-yl)carbonyl]-3,8-diazabicyclo[4.2.0]octane] the Ki [1] was 1.3 µM and the Ki [2] was 10 µM.
For `Cc1cc(C)nc(N2C[C@@H]3CCN(C(=O)c4ncoc4-c4ccccc4F)C[C@@H]32)n1` [Example 177, (1R,6S)-8-(4,6-Dimethylpyrimidin-2-yl)-3-{[5-(2-fluorophenyl)-1,3-oxazol-4-yl]carbonyl}-3,8-diazabicyclo[4.2.0]octane], the Ki [1] was 0.34 µM and the Ki [2] was 2.4 µM.
Work on `Cc1cc(C)nc(N2C[C@@H]3CCN(C(=O)c4ncoc4-c4cccc(Cl)c4)C[C@@H]32)n1` [Example 178, (1R,6S)-3-{[5-(3-Chlorophenyl)-1,3-oxazol-4-yl]carbonyl}-8-(4,6-dimethylpyrimidin-2-yl)-3,8-diazabicyclo[4.2.0]octane] yielded a Ki [1] of 0.126 µM and a Ki [2] of 7 µM.
For `Cc1cc(C)nc(N2C[C@@H]3CCN(C(=O)c4c(C)noc4-c4cc(C)on4)C[C@@H]32)n1` [Example 179, 4′-{[(1R,6S)-8-(4,6-Dimethylpyrimidin-2-yl)-3,8-diazabicyclo[4.2.0]oct-3-yl]carbonyl}-3′,5-dimethyl-3,5′-biisoxazole], the Ki [1] was 1.1 µM and the Ki [2] was 10 µM.
`Cc1cc(C)nc(N2C[C@@H]3CCN(C(=O)c4c(C)noc4-c4snnc4C)C[C@@H]32)n1` [Example 180, (1R,6S)-8-(4,6-Dimethylpyrimidin-2-yl)-3-{[3-methyl-5-(4-methyl-1,2,3-thiadiazol-5-yl)isoxazol-4-yl]carbonyl}-3,8-diazabicyclo[4.2.0]octane] gave a Ki [1] of 6.5 µM and a Ki [2] of 10 µM.
In the case of `Cc1cc(C)nc(N2C[C@@H]3CCN(C(=O)c4ncccc4Br)C[C@@H]32)n1` [Example 181, (1R,6S)-3-[(3-Bromopyridin-2-yl)carbonyl]-8-(4,6-dimethylpyrimidin-2-yl)-3,8-diazabicyclo[4.2.0]octane], the Ki [1] is reported as 1.3 µM and the Ki [2] is reported as 10 µM.
`Cc1cc(C)nc(N2C[C@@H]3CCN(C(=O)c4ncccc4-n4ccnn4)C[C@@H]32)n1` [Example 182, (1R,6S)-8-(4,6-Dimethylpyrimidin-2-yl)-3-{[3-(1H-1,2,3-triazol-1-yl)pyridin-2-yl]carbonyl}-3,8-diazabicyclo[4.2.0]octane] was tested, and the Ki [1] was 1.5 µM and the Ki [2] was 10 µM.
`Cc1cc(C)nc(N2C[C@@H]3CCN(C(=O)c4ncccc4-n4nccn4)C[C@@H]32)n1` [Example 183, (1R,6S)-8-(4,6-Dimethylpyrimidin-2-yl)-3-{[3-(2H-1,2,3-triazol-2-yl)pyridin-2-yl]carbonyl}-3,8-diazabicyclo[4.2.0]octane] showed a Ki [1] of 0.2 µM and a Ki [2] of 10 µM.
`Cc1cc(C)nc(N2C[C@@H]3CCN(C(=O)c4cccc(F)c4-c4cc[nH]n4)C[C@@H]32)n1` [Example 184, (1R,6S)-8-(4,6-Dimethylpyrimidin-2-yl)-3-{[3-fluoro-2-(1H-pyrazol-3-yl)phenyl]carbonyl}-3,8-diazabicyclo[4.2.0]octane] showed a Ki [1] of 0.009 µM and a Ki [2] of 0.156 µM.
`Cc1cc(C)nc(N2C[C@@H]3CCN(C(=O)c4cccc(F)c4-c4ncccn4)C[C@@H]32)n1` [Example 185, (1R,6S)-8-(4,6-Dimethylpyrimidin-2-yl)-3-[(3-fluoro-2-pyrimidin-2-ylphenyl)carbonyl]-3,8-diazabicyclo[4.2.0]octane] was tested, and the Ki [1] was 0.056 µM and the Ki [2] was 0.6 µM.
`Cc1cc(N2C[C@@H]3CCN(C(=O)c4cc(F)ccc4-n4nccn4)C[C@@H]32)nc(N)n1` [Example 186, 4-[(1R,6S)-3-{[5-Fluoro-2-(2H-1,2,3-triazol-2-yl)phenyl]carbonyl}-3,8-diazabicyclo[4.2.0]oct-8-yl]-6-methylpyrimidin-2-amine] showed a Ki [1] of 0.68 µM and a Ki [2] of 10 µM.
`CNc1nc(C)cc(N2C[C@@H]3CCN(C(=O)c4cc(F)ccc4-n4nccn4)C[C@@H]32)n1` [Example 187, 4-[(1R,6S)-3-{[5-Fluoro-2-(2H-1,2,3-triazol-2-yl)phenyl]carbonyl}-3,8-diazabicyclo[4.2.0]oct-8-yl]-N,6-dimethylpyrimidin-2-amine] showed a Ki [1] of 0.31 µM and a Ki [2] of 10 µM.
Compound `Cc1cc(C)nc(N2C[C@@H]3CCN(C(=O)c4cc(F)ccc4-c4ccn(C)n4)C[C@@H]32)n1` [Example 188, (1R,6S)-8-(4,6-Dimethylpyrimidin-2-yl)-3-{[5-fluoro-2-(1-methyl-1H-pyrazol-3-yl)phenyl]carbonyl}-3,8-diazabicyclo[4.2.0]octane] has a Ki [1] of 0.035 µM and a Ki [2] of 1.3 µM.
`CN(C)c1cc(N2C[C@@H]3CCN(C(=O)c4cc(F)ccc4-n4nccn4)C[C@@H]32)ncn1` [Example 189, 6-[(1R,6S)-3-{[5-Fluoro-2-(2H-1,2,3-triazol-2-yl)phenyl]carbonyl}-3,8-diazabicyclo[4.2.0]oct-8-yl]-N,N-dimethylpyrimidin-4-amine] gave a Ki [1] of 0.11 µM and a Ki [2] of 4.1 µM.
`CNc1cc(N2C[C@@H]3CCN(C(=O)c4cc(F)ccc4-n4nccn4)C[C@@H]32)ncn1` [Example 190, 6-[(1R,6S)-3-{[5-Fluoro-2-(2H-1,2,3-triazol-2-yl)phenyl]carbonyl}-3,8-diazabicyclo[4.2.0]oct-8-yl]-N-methylpyrimidin-4-amine] showed a Ki [1] of 1.1 µM and a Ki [2] of 10 µM.
In the case of `Cc1nc(N)cc(N2C[C@@H]3CCN(C(=O)c4cc(F)ccc4-n4nccn4)C[C@@H]32)n1` [Example 191, 6-[(1R,6S)-3-{[5-Fluoro-2-(2H-1,2,3-triazol-2-yl)phenyl]carbonyl}-3,8-diazabicyclo[4.2.0]oct-8-yl]-2-methylpyrimidin-4-amine], the Ki [1] is reported as 0.23 µM and the Ki [2] is reported as 10 µM.
In the case of `Nc1cc(N2C[C@@H]3CCN(C(=O)c4cc(F)ccc4-n4nccn4)C[C@@H]32)nc(N)n1` [Example 192, 6-[(1R,6S)-3-{[5-Fluoro-2-(2H-1,2,3-triazol-2-yl)phenyl]carbonyl}-3,8-diazabicyclo[4.2.0]oct-8-yl]pyrimidine-2,4-diamine], the Ki [1] is reported as 1.4 µM and the Ki [2] is reported as 10 µM.
`O=C(c1cc(F)ccc1-n1nccn1)N1CC[C@H]2CN(c3cc(NC4CC4)ncn3)[C@H]2C1` [Example 194, N-Cyclopropyl-6-[(1R,6S)-3-{[5-fluoro-2-(2H-1,2,3-triazol-2-yl)phenyl]carbonyl}-3,8-diazabicyclo[4.2.0]oct-8-yl]pyrimidin-4-amine] gave a Ki [1] of 0.65 µM and a Ki [2] of 10 µM.
Work on `Cc1ccc(C(F)(F)F)c(C(=O)N2CC[C@H]3CN(c4ccnc(-c5ccccc5)n4)[C@H]3C2)c1` [Example 195, (5-Methyl-2-(trifluoromethyl)phenyl)((1R,6S)-8-(2-phenylpyrimidin-4-yl)-3,8-diazabicyclo[4.2.0]octan-3-yl)methanone] yielded a Ki [1] of 0.028 µM and a Ki [2] of 0.016 µM.
